The values that follow come from patent publication US9326994B2, “Amine functional polyamides” (GENZYME CORPORATION, priority 2013, dated 2016).

Assay type in all cases: cell-based
For data set [1], the system named is normal human dermal fibroblasts (NHDF). The method, then: Mammalian cell cytotoxicity assays were performed using two primary human cell lines: renal proximal tubule epithelial cells (RPTEC—Cambrex CC-2553) and normal human dermal fibroblasts (NHDF—Cambrex CC-2509). Cells were plated at 3,000 cells/well (RPTEC) or 5,000 cells/well (NHDF) in 96-well plates and incubated overnight at 37° C. The compounds were added to the wells, and the cells were incubated for 4 days. Alomar Blue was added to one set of plates and incubated for 4 hours. The plates were read when the compound was added (time zero) and at the end of the study. Fluorescence was read using 530 nm (excitation) and 590 nm (emission) according to the manufacturer's instructions.

Data set [2] concerns renal proximal tubule epithelial cells (RPTEC). The data set is described as follows: in vitro. The procedure:
(§1) Cells were plated at 3,000 cells/well (RPTEC) or 5,000 cells/well (NHDF) in 96-well plates and incubated overnight at 37° C. The compounds were added to the wells, and the cells were incubated for 4 days. Alomar Blue was added to one set of plates and incubated for 4 hours. The plates were read when the compound was added (time zero) and at the end of the study. Fluorescence was read using 530 nm (excitation) and 590 nm (emission) according to the manufacturer's instructions.

Data set [3] concerns human lung epithelial Carcinoma cell line (A 549). Put plainly: Cytotoxicity assay, human lung epithelial cells. Particulars: A 549, 96 hours, CellTiter-Glo. Set-up: unit not given here. Background: Cellular ATP, detected with luciferase, serves as a proxy for viable cell number.
A further data set has as its system Haemophilus influenzae. The data set is described as follows: Minimum inhibitory concentration assay. Particulars: Mueller-Hinton broth, 18-24 hours at 35° C.; unit assumed. The method, then:
(§2) The minimum inhibitory concentration (MIC) assay determines the lowest concentration of an antimicrobial agent required to inhibit the growth of test organisms after incubation. MIC assays were performed against an internal standard panel of organisms to identify compounds with antimicrobial activity. The MIC assay was subsequently repeated against other specialized microbial panels. Assays were conducted against the following clinically relevant microorganisms: Staphylococcus aureus subsp. aureus, Staphylococcus epidermis, Escherichia coli, Pseudomonas aeruginosa, Haemophilius influenzae. The compounds were tested for bacteriocidal activity, time course of killing, toxicity against tissue culture cells grown in vitro, and in some cases were tested for antimicrobial activity in vivo. The MIC assays were performed according to the Performance Standards for Antimicrobial Susceptibility Testing, 2006, vol. M100-S15, Fifteenth Informational Supplement, NCCLS, 940 West Valley Road, Suite 1400, Wayne, Pa. 19087. […] The solution was then filter-sterilized through a 0.22 μm filter. Two-fold serial dilutions of polymer were prepared in Mueller-Hinton broth with cations aliquotted into 96-well microtiter plates. The plates were then inoculated with 5×10^5 cells/mL of target organism and incubated 18-24 hours at 35° C. […] The MIC value is the lowest concentration of compound that inhibits growth; accordingly, a higher MIC value indicates less potency where a lower MIC valued indicated more potency.

Another data set has as its system Staphylococcus epidermis. The data set is described as follows: Minimum inhibitory concentration assay. The conditions noted are these: Mueller-Hinton broth, 18-24 hours at 35° C.; unit assumed. The procedure:
as §2

Another data set deals with Escherichia coli. Put plainly: Minimum inhibitory concentration assay. Particulars: Mueller-Hinton broth, 18-24 hours at 35° C.; unit assumed. The procedure:
as §2

Data set [4] concerns Staphylococcus aureus subsp. aureus. The data set is described as follows: Minimum inhibitory concentration assay. The conditions noted are these: Mueller-Hinton broth, 18-24 hours at 35° C.; unit assumed. The method, then: as §2
The test system of another data set is Pseudomonas aeruginosa. Put plainly: Minimum inhibitory concentration assay. Particulars: Mueller-Hinton broth, 18-24 hours at 35° C.; unit assumed. The procedure: as §2
The subject of another data set is erythrocytes. The data set is described as follows: Erythrocyte lysis assay. Particulars: overnight 37° C., hematocrit 1%. The procedure:
After incubation, the plates were centrifuged and the supernatant transferred to flat-bottomed 96-well plates. The supernatant was assayed using the QuantiChrom Hemoglobin kit according to the manufacturer's instructions. The IC50 values were calculated using GraphPad Prism.

A short description of another data set: in vitro. The conditions noted are these: human. The method, then: as §1

“Poly(piperazinebispropanoic acid-2,2-diaminodiethylamine)”: in data set [1], the “Cytotoxicity (Human Dermal Fibroblast IC50)” value worked out at 1111.6.

For the compound “Poly(4,4′-dipiperidinebispropanoic acid-3,3′-diamino-N-methyl-dipropylamine) [Poly(4,4′-dipiperidinebispropanoic acid-3,3′-diamino-N-methy] [listing 1 of 2 here]”, in [1], the “Cytotoxicity (Human Dermal Fibroblast IC50)” value stood at 2.

The compound “Carboxy terminated Poly(4,4-trimethylene dipiperidinebispropanoic acid-diaminopropane)” showed a Cytotoxicity (Kidney Epithelial IC50) in data set [2] of 43 µg/mL.

For “Poly(4,4-trimethylene dipiperidinebispropanoic acid-diaminopropane)”, in data set [1], the “Cytotoxicity (Human Dermal Fibroblast IC50)” value was 141.3.

“Poly(4,4-trimethylene dipiperidine bispropanoic acid-diaminoethane)”: in [1], the “Cytotoxicity (Human Dermal Fibroblast IC50)” value is 178.

Regarding “4,4′-trimethylene dipiperidinebispropanoic acid-diaminopropane heptamer”, in data set [3], the “Lung Epi IC50” value stood at 418.0. The compound also showed a Haemophilus influenzae (MIC) in the data set with Haemophilus influenzae of 128 µg/mL. In the data set on Staphylococcus epidermis, this compound registered a Staphylococcus epidermis (MIC) of 1 µg/mL. Moreover, the Escherichia coli (MIC) in the data set on Escherichia coli was determined as 8 µg/mL. The Staphylococcus aureus subsp. aureus (MIC) in data set [4] was 2 µg/mL. The same compound showed a Pseudomonas aeruginosa (MIC) in the data set with Pseudomonas aeruginosa greater than 128 µg/mL. Further, the “Erythrocyte Lysis (Hemolysis IC50)” value in the data set on erythrocytes is listed as greater than 3200. The compound also showed a Cytotoxicity (Kidney Epithelial IC50) in [2] of 190 µg/mL.

Turning to “Poly(4,4′-trimethylenedipiperidinebispropionic acid-bis(4-aminobutyl)ether)”, the “Cytotoxicity (Human Dermal Fibroblast IC50)” value in [1] was 3.

With “Poly(4,4′-dipiperidinebispropionic acid-1,3-diaminopropane)”, the “Cytotoxicity (Human Dermal Fibroblast IC50)” value in data set [1] came to 7.

On to “Poly (4,4′-trimethylene dipiperidine bispropanoic acid-4,4′-trimethylene dipiperidine)”, for which the “Cytotoxicity (Human Dermal Fibroblast IC50)” value in [1] is given as 3.

For “Poly(4,4′-trimethylenedipiperidine-1,3-diamninopropane-N,N′-di-3-propionic acid)”, in data set [1], the “Cytotoxicity (Human Dermal Fibroblast IC50)” value was found to be 2. For the same compound, the Cytotoxicity (Kidney Epithelial IC50) in data set [2] stood at 2 µg/mL.

As to “4,4′-trimethylene dipiperidinebispropanoic acid-diaminopropane pentamer”, the “Lung Epi IC50” value in data set [3] turned out to be 259.0. This compound yielded a Haemophilus influenzae (MIC) with Haemophilus influenzae of 64 µg/mL. The Staphylococcus epidermis (MIC) in the data set on Staphylococcus epidermis amounted to 1 µg/mL. In the data set with Escherichia coli, this compound showed an Escherichia coli (MIC) of 16 µg/mL. The compound further came in with a Staphylococcus aureus subsp. aureus (MIC) in data set [4] of 16 µg/mL. Besides, the Pseudomonas aeruginosa (MIC) in the data set with Pseudomonas aeruginosa was greater than 128 µg/mL. Besides, the “Erythrocyte Lysis (Hemolysis IC50)” value in the data set on erythrocytes is recorded as greater than 3200.

“Poly(piperazinebispropanoic acid-3,3′ diamino-N-methyl-dipropylamine)”: the Cytotoxicity (Kidney Epithelial IC50) in data set [2] worked out at 5.3 µg/mL.

Turning to “4-guanidinobenzene terminated Poly(4,4-trimethylene dipiperidinebispropanoic acid-diaminopropane)”, in [2], the Cytotoxicity (Kidney Epithelial IC50) is 6 µg/mL.

On to “Poly(4,4′-dipiperidinebispropanoic acid-3,3′-diamino-dipropylamine) [Poly(4,4′-dipiperidinebispropanoic acid-3,3′-diamino-dipropy]”, for which the “Cytotoxicity (Human Dermal Fibroblast IC50)” value in data set [1] is 2.

For “Poly(4,4′-trimethylenedipiperidinebispropionic acid-2-dydroxy 1,3-diaminopropane)”, in [1], the “Cytotoxicity (Human Dermal Fibroblast IC50)” value was 50.

For the compound “Poly(4,4-trimethylene dipiperidinebispropanoic acid-N(2-aminoethyl)-diaminoethane)”, in data set [1], the “Cytotoxicity (Human Dermal Fibroblast IC50)” value stood at 1.7.

In the case of “Poly(4,4′-trimethylene dipiperidinebispropanoic acid-1,4-benzyldiamine)”, the “Cytotoxicity (Human Dermal Fibroblast IC50)” value in data set [1] stood at 4.703.

Regarding “Poly(4,4-trimethylene dipiperidinebispropanoic acid 4,4′-dipiperidine)”, the “Cytotoxicity (Human Dermal Fibroblast IC50)” value in data set [1] amounted to 2.0.

In the case of “Poly(4,4′-dipiperidinebispropanoic acid-3,3′-diamino-N-methyl-dipropylamine) [Poly(4,4′-dipiperidinebispropanoic acid-3,3′-diamino-N-methy] [listing 2 of 2 here]”, in data set [1], the “Cytotoxicity (Human Dermal Fibroblast IC50)” value was determined as 3.

For orientation: IC50 means the concentration at which inhibition is half-maximal. One may read the CC50 as the concentration at which the toxic effect on the cells reaches its halfway point. As to `NCCCNC(=O)CCN1CCC(CCCC2CCN(CCC(=O)NCCCN)CC2)CC1` [4,4-trimethylene dipiperidinebispropanoic acid-diaminopropane], in the data set with Haemophilus influenzae, the Haemophilus influenzae (MIC) was greater than 128 µg/mL. The compound further came in with a Staphylococcus epidermis (MIC) in the data set with Staphylococcus epidermis greater than 128 µg/mL. In addition, in the data set on Escherichia coli, the Escherichia coli (MIC) was greater than 128 µg/mL. Further, the Staphylococcus aureus subsp. aureus (MIC) in [4] is greater than 128 µg/mL. The Pseudomonas aeruginosa (MIC) in the data set on Pseudomonas aeruginosa is greater than 128 µg/mL. The IC50 with erythrocytes (Erythrocyte, read-out: Erythrocyte Lysis (Hemolysis IC50)) was greater than 3200 µg/mL. The CC50 at 4 days in the data set “in vitro” was greater than 512 µg/mL. The IC50 at 4 days in “in vitro” (RPTEC, 4 days incubation, Alomar Blue, read-out: Cytotoxicity (Kidney Epithelial IC50)) is greater than 512 µg/mL.

“Poly(piperazinebispropanoic acid-N(3-aminopropyl)1,3-propanediamine)”: in data set [1], the “Cytotoxicity (Human Dermal Fibroblast IC50)” value is reported as 15.3.

In [2], “Methyl ester terminated Poly(4,4-trimethylene dipiperidinebispropanoic acid-diaminopropane)” yielded a Cytotoxicity (Kidney Epithelial IC50) of 1.5 µg/mL.

Turning to “Poly (4,4′-trimethylene dipiperidine bispropanoic acid--N,N′-dimethyl-1,3-diaminopropane)”, the “Cytotoxicity (Human Dermal Fibroblast IC50)” value in data set [1] was determined as 5.

As for “Poly(4,4′-dipiperidinebispropionic acid-1,4-diaminobutane)”, the “Cytotoxicity (Human Dermal Fibroblast IC50)” value in data set [1] came out at 5.

On to “Poly(piperazinebispropanoic acid-1,4-diaminobutane)”, for which the “Cytotoxicity (Human Dermal Fibroblast IC50)” value in [1] stood at 1905.

“Poly(piperazinebispropanoic acid-N-methyl-2,2-diaminodiethylamine)”: the “Cytotoxicity (Human Dermal Fibroblast IC50)” value in data set [1] turned out to be 3068.6.
